Measurements taken from ChEMBL document CHEMBL4610097, “Daphnane Diterpenoids from Daphne genkwa Inhibit PI3K/Akt/mTOR Signaling and Induce Cell Cycle Arrest and Apoptosis in Human Colon Cancer Cells” (J Nat Prod, 2020).
Activity calls are given as the source filed them. No cut-off for these calls is given here.

Experiments:
SW-620 [1] = experiment: Effect on AKT expression in human SW620 cells at 0.74 to 11.84 uM after 24 hrs by Western blot analysis; assay type: cell-based; conditions: sw-620, 24 h
SW-620 [2] = experiment: Induction of apoptosis in human SW620 cells assessed as late apoptotic cells at 11.84 uM after 24 hrs by annexin V/propidium iodide staining-based flow cytometric analysis (reference value: 2.40%); assay type: functional
SW-620 [3] = experiment: Induction of cell cycle arrest in human SW620 cells assessed as accumulation at S phase at 0.74 uM after 24 hrs by propidium iodide staining-based flow cytometric analysis (reference value: 23.83%); assay type: functional
SW-620 [4] = experiment: Induction of cell cycle arrest in human SW620 cells assessed as accumulation at S phase at 5.92 uM after 24 hrs by propidium iodide staining-based flow cytometric analysis (reference value: 23.83%); assay type: functional
SW-620 [5] = experiment: Induction of apoptosis in human SW620 cells assessed as increase in cleaved PARP at 0.74 to 11.84 uM after 24 hrs by Western blot analysis; assay type: functional, cell-based
SW-620 [6] = experiment: Induction of cell cycle arrest in human SW620 cells assessed as accumulation at G2/M phase at 0.74 uM after 24 hrs by propidium iodide staining-based flow cytometric analysis (reference value: 20.06%); assay type: functional
SW-620 [7] = experiment: Induction of apoptosis in human SW620 cells assessed as necrotic cells at 2.96 uM after 24 hrs by annexin V/propidium iodide staining-based flow cytometric analysis (reference value: 0.30%); assay type: functional
SW-620 [8] = experiment: Induction of cell cycle arrest in human SW620 cells assessed as accumulation at G0/G1 phase at 11.84 uM after 24 hrs by propidium iodide staining-based flow cytometric analysis (reference value: 56.11%); assay type: functional
SW-620 [9] = experiment: Induction of apoptosis in human SW620 cells assessed as early apoptotic cells at 1.48 uM after 24 hrs by annexin V/propidium iodide staining-based flow cytometric analysis (reference value: 0.36%); assay type: functional
SW-620 [10] = experiment: Induction of apoptosis in human SW620 cells assessed as early apoptotic cells at 0.74 uM after 24 hrs by annexin V/propidium iodide staining-based flow cytometric analysis (reference value: 0.36%); assay type: functional
[11] = Inhibition of PI3K/Akt/mTOR signalling pathway in human SW620 cells assessed as reduction in mTOR phosphorylation at 0.74 to 11.84 uM after 24 hrs by Western blot analysis; assay type: cell-based; conditions: SW-620
SW-620 [12] = experiment: Induction of apoptosis in human SW620 cells assessed as increase in Bax/Bcl2 ratio at 0.74 to 11.84 uM after 24 hrs by Western blot analysis; assay type: functional, cell-based
SW-620 [13] = experiment: Induction of apoptosis in human SW620 cells assessed as viable cells at 0.74 uM after 24 hrs by annexin V/propidium iodide staining-based flow cytometric analysis (reference value: 96.9%); assay type: functional; conditions: SW-620, 24 h, read-out: Activity
SW-620 [14] = experiment: Induction of apoptosis in human SW620 cells assessed as early apoptotic cells at 5.92 uM after 24 hrs by annexin V/propidium iodide staining-based flow cytometric analysis (reference value: 0.36%); assay type: functional
SW-620 [15] = experiment: Induction of cell cycle arrest in human SW620 cells assessed as accumulation at S phase at 2.96 uM after 24 hrs by propidium iodide staining-based flow cytometric analysis (reference value: 23.83%); assay type: functional

With `C=C(C)[C@@]12O[C@@]3(/C=C/C=C/CCCCC)O[C@@H]1[C@@H]1[C@H](O)[C@@](O)(CO)[C@@H](O)[C@]4(O)C(=O)C(C)=C[C@H]4[C@@]1(O3)[C@H](C)[C@H]2OC(=O)c1ccccc1` the Activity (SW-620 [1]) was “Non-Toxic”, the Activity (SW-620 [2]) was 86.3% and the Activity (SW-620 [3]) was 14.24%. The Activity (SW-620 [4]) was 11.73%, the Activity (SW-620 [5]) was “Active” and the Activity (SW-620 [6]) was 8.83%. The Activity (SW-620 [7]) was 0.33%, the Activity (SW-620 [8]) was 88.08% and the Activity (SW-620 [9]) was 5.64%. The Activity (SW-620 [10]) was 3.24%, the inhibition [11] was “Active” and the Activity (SW-620 [12]) was “Active”. The viability at 0.74 µM (SW-620 [13]) was 80.8%, the Activity (SW-620 [14]) was 4.67% and the Activity (SW-620 [15]) was 12.76%.
